Test systems include NCI-H23 lung; UACC-62 melanoma; K-562 leukemia; SW-620 colon; UO-31 renal; SF-539 CNS; NCI-H226 lung; SK-OV-3 ovarian; EKVX NSCLC; A549 NSCLC.
Common to all, as to assay: NCI tumour cell line growth inhibition, 48 h

These results are taken from PubChem BioAssay (NCI).

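Tested at 5 concentrations; 48 h exposure; 96-well plates; endpoints linearly interpolated, else capped at highest concentration. Here, GI50 denotes the concentration required for 50% inhibition of growth. TGI denotes the concentration required for complete inhibition of growth.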

With `C#CCN(Cc1nc2cc(C(F)(F)F)ccc2nc1-c1ccccc1)c1ccc(F)cc1`, the GI50 in the experiment with NCI-H23 lung was above 100 µM; in the experiment on UACC-62 melanoma, 25.5 µM; with K-562 leukemia, 19.5 µM; in the experiment with SW-620 colon, 26.4 µM; in the experiment on UO-31 renal, 31.2 µM; in the experiment on SF-539 CNS it was 37.4 µM. Besides, the GI50 with NCI-H226 lung was 42.4 µM; in the experiment with SK-OV-3 ovarian, 33.4 µM; in the experiment on EKVX NSCLC it was 23.1 µM; with A549 NSCLC, 20.4 µM. The TGI with NCI-H23 lung, in the experiment on UACC-62 melanoma, with K-562 leukemia, in the experiment on SW-620 colon, in the experiment with UO-31 renal and with SF-539 CNS was above 100 µM throughout. Further, the TGI in the experiment on NCI-H226 lung is above 100 µM; in the experiment on SK-OV-3 ovarian it was above 100 µM; in the experiment with EKVX NSCLC it was 66.2 µM; with A549 NSCLC, 60.9 µM.
Turning to `CN=C(N)NC`, the TGI with NCI-H23 lung, in the experiment with UACC-62 melanoma, in the experiment with K-562 leukemia, with SW-620 colon, with UO-31 renal and in the experiment on SF-539 CNS was above 100 µM each time. Also, the TGI in the experiment with NCI-H226 lung, with SK-OV-3 ovarian, in the experiment with EKVX NSCLC and in the experiment with A549 NSCLC was above 100 µM in each case.
On to `CN1CCN(c2ccc(-c3cccc(CN4CCOCC4)c3)cc2NC(=O)c2c[nH]c(=O)cc2C(F)(F)F)CC1`, for which the GI50 with NCI-H23 lung is above 100 µM; with UACC-62 melanoma it was 60.1 µM; with K-562 leukemia, 22.1 µM; in the experiment with SW-620 colon, 33.6 µM; in the experiment on UO-31 renal it was 49 µM; in the experiment with SF-539 CNS, 19.5 µM. The GI50 with NCI-H226 lung is above 100 µM; in the experiment with SK-OV-3 ovarian it was above 100 µM; in the experiment on EKVX NSCLC it was 69.7 µM; with A549 NSCLC, 53.5 µM. For the same compound, the TGI with NCI-H23 lung is above 100 µM; in the experiment on UACC-62 melanoma, above 100 µM; in the experiment with K-562 leukemia it was 51 µM; in the experiment with SW-620 colon, above 100 µM; with UO-31 renal, above 100 µM; in the experiment on SF-539 CNS it was 44.7 µM. Further, the TGI in the experiment on NCI-H226 lung, in the experiment with SK-OV-3 ovarian, in the experiment with EKVX NSCLC and in the experiment on A549 NSCLC was above 100 µM throughout.
Turning to `O=S(=O)(NCCNc1cc(-c2cn(-c3ccccc3)nc2-c2cccc(O)c2)ccn1)c1ccc(Br)cc1`, the GI50 in the experiment with NCI-H23 lung was 2.7 µM; in the experiment on UACC-62 melanoma, 1.81 µM; with K-562 leukemia, 1.98 µM; in the experiment on SW-620 colon it was 3.04 µM; in the experiment with UO-31 renal, 2.19 µM; in the experiment on SF-539 CNS, 1.81 µM. For the same compound, the GI50 in the experiment on NCI-H226 lung is 3.15 µM; in the experiment on SK-OV-3 ovarian, 3.59 µM; with EKVX NSCLC, 2.76 µM; in the experiment on A549 NSCLC it was 3.6 µM. Further, the TGI in the experiment on NCI-H23 lung was 11.4 µM; with UACC-62 melanoma, 3.87 µM; in the experiment with K-562 leukemia it was 5.49 µM; in the experiment with SW-620 colon, 9.68 µM; with UO-31 renal, 6.96 µM; in the experiment with SF-539 CNS, 4.24 µM. Moreover, the TGI was 15 µM in the experiment on NCI-H226 lung, 14.5 µM with SK-OV-3 ovarian, 19.1 µM with EKVX NSCLC and 15 µM with A549 NSCLC.
`COC(=O)c1ccc(/C=C/S(=O)(=O)c2ccccc2)cc1`: the TGI with NCI-H23 lung, with UACC-62 melanoma, in the experiment with K-562 leukemia, in the experiment on SW-620 colon, with UO-31 renal and in the experiment with SF-539 CNS was above 100 µM each time. Also, the TGI with NCI-H226 lung, in the experiment on SK-OV-3 ovarian, in the experiment on EKVX NSCLC and in the experiment with A549 NSCLC was above 100 µM throughout.
For `O=C(Nc1ccc(-n2ccc3c(NC(=O)c4ccccc4)nccc32)cc1)c1ccc(N2CCOCC2)c(C(F)(F)F)c1`, the GI50 with NCI-H23 lung is 1.39 µM; in the experiment with UACC-62 melanoma it was 0.331 µM; in the experiment on K-562 leukemia, 0.0429 µM; in the experiment on SW-620 colon, 0.0697 µM; in the experiment on UO-31 renal, 0.557 µM; with SF-539 CNS it was 0.0513 µM. The GI50 in the experiment with NCI-H226 lung was 3.18 µM; in the experiment on SK-OV-3 ovarian, 0.509 µM; in the experiment with EKVX NSCLC, 3.9 µM; in the experiment on A549 NSCLC, 0.0488 µM. For the same compound, the TGI with NCI-H23 lung is above 44.8 µM; with UACC-62 melanoma, 21.7 µM; with K-562 leukemia it was above 100 µM; in the experiment with SW-620 colon it was above 100 µM; with UO-31 renal it was 19.5 µM; in the experiment on SF-539 CNS, 6.79 µM. Further, the TGI was 59.4 µM in the experiment on NCI-H226 lung, 28.2 µM with SK-OV-3 ovarian, above 100 µM in the experiment with EKVX NSCLC and 4.15 µM in the experiment with A549 NSCLC.
As to `COc1cc(=O)oc(/C=C/C=C/C=C/C(C)=C\C2(C)OC(C)C(C)(O)C2O)c1C` (stereo not given), the TGI in the experiment with NCI-H23 lung, in the experiment on UACC-62 melanoma, with K-562 leukemia, in the experiment with SW-620 colon, with UO-31 renal and in the experiment on SF-539 CNS was above 100 µM throughout. Moreover, the TGI in the experiment with NCI-H226 lung, in the experiment on SK-OV-3 ovarian, in the experiment with EKVX NSCLC and in the experiment with A549 NSCLC was above 100 µM throughout.
For `COc1ccc(C(=O)c2cc(C)c(OC)c(C)c2)c(OC)c1N(C(=O)CCl)C(=O)CCl`, the GI50 in the experiment with NCI-H23 lung is 0.0696 µM; in the experiment on UACC-62 melanoma, 0.067 µM; with K-562 leukemia, 0.0557 µM; in the experiment on SW-620 colon, 0.0432 µM; in the experiment with UO-31 renal, 0.0829 µM; with SF-539 CNS it was 0.0302 µM. In addition, the GI50 with NCI-H226 lung is 0.0562 µM; in the experiment on SK-OV-3 ovarian it was 0.0514 µM; in the experiment on EKVX NSCLC it was 0.0792 µM; in the experiment with A549 NSCLC, 0.0834 µM. Also, the TGI in the experiment on NCI-H23 lung is 14.2 µM; in the experiment on UACC-62 melanoma it was 23.5 µM; with K-562 leukemia it was above 100 µM; in the experiment on SW-620 colon, 19.3 µM; in the experiment with UO-31 renal, 24.9 µM; with SF-539 CNS, 0.141 µM. Besides, the TGI in the experiment with NCI-H226 lung was 4.22 µM; with SK-OV-3 ovarian, above 83.8 µM; in the experiment on EKVX NSCLC, 69 µM; in the experiment with A549 NSCLC, above 100 µM.
In the case of `C/C=C(\C)C(=O)N1c2ccccc2CC1c1c(C)[nH]c2ccccc12` (stereo not given), the TGI with NCI-H23 lung, in the experiment on UACC-62 melanoma, with K-562 leukemia, in the experiment on SW-620 colon, in the experiment with UO-31 renal and in the experiment on SF-539 CNS was above 100 µM in each case. Moreover, the TGI with NCI-H226 lung, with SK-OV-3 ovarian, with EKVX NSCLC and with A549 NSCLC was above 100 µM each time.
